{
  "source": "patent US8895599B2",
  "about": "“Lipoprotein lipase-activating compositions comprising benzene derivates” (Otsuka Pharmaceutical Factory, Inc., priority 2008, dated 2014)",
  "key": {"[1]": {"assay": "Anti-obesity test using Zucker fatty rats", "format": "in vivo", "settings": "100 mg/kg oral, once a day over 4 weeks, relative to control group", "from_the_text": "Anti-Obesity Test Using Zucker Fatty Rats\nZucker fatty rats are obese rats discovered by Zucker et al., in 1961 as mutants among 13 M rats, which are a hybrid between 13C and M rats. These rats (fa/fa) start to appear distinctly obese from normal broods around the age of 3 weeks. As they age, the weight difference between the fatty rats and normal rats increases. Zucker fatty rats are currently kept by a variety of organizations as simple obesity models, and are readily obtainable.\nThis test was performed using this rat model to evaluate the anti-obesity action of the compounds of the invention. The preparation method of test samples and the test procedures are described below:\nThe test samples were prepared in the same manner as in Test Example 2.\nZucker fatty rats and lean rats (both from Charles River Japan) were purchased at the age of 5 weeks. They were divided into groups (10 rats per group) according to body weight when they reached 6 weeks old. After acclimatization, the administration of test samples was initiated when the rats reached 8 weeks old. Test samples were orally administered using an oral gavage so that the compounds of the invention contained in the test samples were given in an amount of 100 mg/kg body weight (test sample dosage: 5 ml/kg body weight). The test samples were administered once a day over 4 weeks at a specific time of day.\nAs a control, a group of rats were administered with the same amount of 5% aqueous gum arabic solution (5 ml/kg body weight) instead of the test samples.\nThe rats of all groups were weighed on the last day of administration. The average body weight of the rats of each test group was compared with the average body weight (standard weight) of the rats of the control group to obtain the weight variations (differences). The weight differences were expressed as percentages in relation to the standard weight. The values thus calculated are referred to as “weight change %”. When a weight difference is negative relative to the standard weight, weight change % is shown with “−” (minus).\nDuring the test period, the rats of the respective groups had free access to rat feed (“CRF-1”, manufactured by Oriental Yeast, Co., Ltd.) and water (tap water)."}, "[2]": {"assay": "Anti-obesity test using AKR mice (high-fat feed)", "format": "in vivo", "settings": "1 mg per gram of feed in high-fat feed, 7 weeks, AKR/J mice, relative to high-fat feed control group", "from_the_text": "Anti-Obesity Test Using AKR Mice\nFurthermore, this test enables the evaluation of therapeutic effects on diabetes. That is, it is reported that insulinemia can be observed in AKR/J mice when they are fed with a high-fat diet (see Am. J. Physiol. 266 (5 Pt 2), May 1994: R1423-8). It is thus known that insulinemia is strongly associated with diabetes (see, for example, J. Cardiovasc. Nurs. 16 (2), January 2002: 17-23). Therefore, this test can verify the therapeutic effects of the compounds of the present invention, used as test compounds, on diabetes.\nFor rat feed, powdered CRF-1 (Charles River Formula 1, manufactured by Oriental Yeast, Co., Ltd.) was used as normal feed. As high-fat feed, that prepared by blending CRF-1 with 18% safflower oil (Oriental Yeast, Co., Ltd.) was used.\nTest substances were blended with the high-fat feed in an amount of 1 mg per gram of CRF-1.\nAKR/J mice (from CLEA Japan, Inc.) were purchased at the age of 4 weeks. They were roughly divided into 2 groups according to body weight when the mice reached 5 weeks old. During this period, all mice were given the normal feed.\nSubsequently, the mice of one group (8 mice) continued to be fed with the normal feed (normal feed group). The mice of the other group (8×(the number of the test substances+1) mice) were given the high-fat feed (high-fat feed group).\nThe body weight of the mice of each group was measured daily. […] These mice were further reared for 7 weeks (“test substances+high-fat feed groups”; n=8 per type of test substance). Specifically, the administration of the test substances was continued for 7 weeks. A group of mice to which high-fat feed containing no test substance was continued to be given was used as a control (high-fat feed control group; n=8).\nFour hours after the feeding on the last day of the 7-week test (the last day of the test), the body weight of the mice of the “test substances+high fat feed groups” was measured. Blood was collected from the abdominal aorta of the mice using a heparinized syringe, and the leptin and insulin levels in the plasma were measured using an Elisa kit (produced by Morinaga). The mice of the other groups (normal feed group and high-fat feed control group) were reared till the last day of the test as above, and 4 hours after the last feeding on the last day of the test the measurements were performed according to the same procedures.\nThe average values of the test results (body weight, leptin level, and insulin level) of the test substances+high-fat feed groups to which the compounds prepared in Examples (Examples 10 and 58) were used as test substances (hereinbelow referred to as the “Example Compound 10-mixed high-fat feed group” and “Example Compound 58-mixed high-fat feed group”) were compared with the respective average values (standard values) of the results obtained from the mice of the high-fat control group to obtain the variations (differences). The differences were expressed as percentages in relation to the standard values. The values thus calculated were referred to as “weight change (%)”, “leptin level change (%)”, and “insulin level change (%)”. In the table below, the symbols “−” (minus) indicate that the differences are negative relative to the standard values."}},
  "data": [
    {"compound": "COc1cc(-c2cn3ccccc3n2)ccc1OCc1ccc(Cl)cc1", "note": "[Example 10]", "values": [
      {"measurement": "Weight Change (%)", "setting": "[1]", "result": "−15", "unit": "%"},
      {"measurement": "Weight Change (%)", "setting": "[2]", "result": "−15", "unit": "%"},
      {"measurement": "Insulin level change (%)", "setting": "[2]; plasma", "result": "−54", "unit": "%"},
      {"measurement": "Leptin level change (%)", "setting": "[2]; plasma", "result": "−68", "unit": "%"}
    ]}
  ]
}
